The values that follow are results of earlier work, collected in patent US20090285869A1, “SALT STABLE LECITHIN ORGANOGEL COMPOSITION” (Humco Holding Group, Inc., priority 2008, published 2009).

For the data set the following is noted: non-ionic O/W and W/O emulsifiers; scale from 0 to 20.

Turning to `CCCCCCCCCCCC(=O)OCC(O)CO` (stereo not drawn) [Glyceryl Laurate], the “Approximate HLB value” is given as approximately 5.2.

As for `CCCCCCCC/C=C\CCCCCCCC(=O)OCC(O)CO` (stereo not drawn) [Glyceryl Oleate], the “Approximate HLB value” is on record as approximately 2.8.

As to `CCCCCC[C@@H](O)C/C=C\CCCCCCCC(=O)OCC(O)CO` (stereo partly drawn) [Glyceryl Ricinoleate], the “Approximate HLB value” was approximately 2.6.

For the compound `CCCCCCCCCCCCCCCCCC(=O)OCC(O)CO` (stereo not drawn) [Glyceryl Stearate], the “Approximate HLB value” was approximately 4.0.

As to Ceteareth-6, the “Approximate HLB value” is approximately 10.0.

As to Ceteareth-12, the “Approximate HLB value” is recorded as approximately 13.4.

For the compound Ceteareth-20, the “Approximate HLB value” is on record as approximately 15.7.

Take Ceteareth-25: the “Approximate HLB value” is listed as approximately 16.2.

As to Glyceryl Dilaurate, the “Approximate HLB value” is approximately 4.0.

Consider Oleth-5, for which the “Approximate HLB value” was approximately 9.0.

For Oleth-10, the “Approximate HLB value” is listed as approximately 12.4.

On to Oleth-20, for which the “Approximate HLB value” was approximately 15.5.
